Data as given in ChEMBL document CHEMBL1201862, “PubChem BioAssay data set” (2004).
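Method: 48-hour compound exposure of cells in 96-well plates, five concentrations, linear interpolation of endpoints. The concentration for 50% growth inhibition is given as GI50.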 Calls of active or inactive are those of the source. Rule as the data show it: active = GI50 up to about 1.1 µM and inactive = higher.

Experiments:
Assay in all cases: inhibition of tumour cell growth, NCI panel, 48 h
HOP-92 = system: HOP-92
SNB-19 = system: SNB-19
EKVX = system: EKVX
K562 = system: K562
RXF 393 = system: RXF 393
SF-295 = system: SF-295
UACC-62 = system: UACC-62
HCC 2998 = system: HCC 2998
NCI/ADR-RES = system: NCI/ADR-RES
OVCAR-4 = system: OVCAR-4
OVCAR-5 = system: OVCAR-5
786-0 = system: 786-0
SNB-75 = system: SNB-75
ACHN = system: ACHN
SR = system: SR
SK-MEL-5 = system: SK-MEL-5
HL-60 = system: HL-60
SF-539 = system: SF-539
RPMI-8226 = system: RPMI-8226
SK-OV-3 = system: SK-OV-3

Row | Structure (SMILES) | GI50 (HOP-92) | GI50 (SNB-19) | GI50 (EKVX) | GI50 (K562) | GI50 (RXF 393) | GI50 (SF-295) | GI50 (UACC-62) | GI50 (HCC 2998) | GI50 (NCI/ADR-RES) | GI50 (OVCAR-4) | GI50 (OVCAR-5) | GI50 (786-0) | GI50 (SNB-75) | GI50 (ACHN) | GI50 (SR) | GI50 (SK-MEL-5) | GI50 (HL-60) | GI50 (SF-539) | GI50 (RPMI-8226) | GI50 (SK-OV-3)
1 | CN(C)CN1CSC(=S)N(CN(C)C)C1 | > 100 µM (inactive) | > 100 µM (inactive) | > 100 µM (inactive) | 44.5 µM (inactive) | > 100 µM (inactive) | > 100 µM (inactive) | > 100 µM (inactive) | > 100 µM (inactive) | > 100 µM (inactive) | > 100 µM (inactive) | > 100 µM (inactive) | 43 µM (inactive) | 58.2 µM (inactive) | > 100 µM (inactive) | 16.8 µM (inactive) | > 100 µM (inactive) |  |  |  | 
2 | CC(Nc1cc(=O)n(C)c(=O)[nH]1)c1ccccc1 (configuration not stated) | 15.5 µM (inactive) | > 100 µM (inactive) | > 100 µM (inactive) | > 100 µM (inactive) | > 100 µM (inactive) | > 100 µM (inactive) | > 100 µM (inactive) | > 100 µM (inactive) | > 100 µM (inactive) | > 100 µM (inactive) | > 100 µM (inactive) | > 100 µM (inactive) | > 100 µM (inactive) | > 100 µM (inactive) | > 100 µM (inactive) | > 100 µM (inactive) | > 100 µM (inactive) | > 100 µM (inactive) |  | 
3 | COc1cc(O)cc2oc(-c3ccc(O)cc3)cc(=O)c12 | 71.9 µM (inactive) | > 100 µM (inactive) | > 100 µM (inactive) | > 100 µM (inactive) | 32.7 µM (inactive) | 36.2 µM (inactive) | 83.9 µM (inactive) |  | > 100 µM (inactive) |  | > 100 µM (inactive) | 68.4 µM (inactive) | 14 µM (inactive) | 64.7 µM (inactive) | 37.8 µM (inactive) | > 100 µM (inactive) | > 100 µM (inactive) | > 100 µM (inactive) | 66.1 µM (inactive) | > 100 µM (inactive)
4 | Cc1ccc(S(=O)(=O)c2[nH]cc(/C(=C\C3CCCCC3)[N+](=O)[O-])c2C2CCCCC2)cc1 | 0.292 µM (active) | 1.75 µM (inactive) | 0.354 µM (active) | 0.251 µM (active) | 0.196 µM (active) |  | 0.234 µM (active) | 0.682 µM (active) | 0.426 µM (active) | 0.388 µM (active) | 0.822 µM (active) | 0.199 µM (active) | 1.82 µM (inactive) | 0.366 µM (active) | 0.281 µM (active) | 0.318 µM (active) |  | 0.462 µM (active) | 0.251 µM (active) | 
5 | CCOC(=O)CCC(C(=O)OCC)n1nc2ccc(Nc3c(C)[n+]([O-])c4cc(Cl)ccc4[n+]3[O-])cc2n1 (configuration not stated) | 27 µM (inactive) | > 100 µM (inactive) | 32.2 µM (inactive) | 82 µM (inactive) | 30.8 µM (inactive) | 82.4 µM (inactive) | 66.1 µM (inactive) |  | > 100 µM (inactive) | 65.8 µM (inactive) | > 100 µM (inactive) | 83.9 µM (inactive) | > 100 µM (inactive) | > 100 µM (inactive) | 10.1 µM (inactive) | 75 µM (inactive) | 96.8 µM (inactive) | > 100 µM (inactive) | 19.5 µM (inactive) | > 100 µM (inactive)
6 | C=CCc1cccc(C(=O)/C=C(O)/C=C/c2ccccc2Cl)c1O | 25.6 µM (inactive) | 21 µM (inactive) | 29.5 µM (inactive) | 2.11 µM (inactive) | 19.5 µM (inactive) | 9.27 µM (inactive) | 13.4 µM (inactive) | 33.9 µM (inactive) | 11.5 µM (inactive) |  | 33.4 µM (inactive) | 10.4 µM (inactive) | 67.3 µM (inactive) | 23.3 µM (inactive) | 4.74 µM (inactive) | 7.16 µM (inactive) |  | 7.43 µM (inactive) | 6.67 µM (inactive) | 23.6 µM (inactive)
7 | c1ccc(-c2cs[s+]c2)cc1 | > 100 µM (inactive) | > 100 µM (inactive) | > 100 µM (inactive) | 34.2 µM (inactive) | > 100 µM (inactive) | > 100 µM (inactive) | > 100 µM (inactive) | > 100 µM (inactive) | > 100 µM (inactive) | > 100 µM (inactive) | > 100 µM (inactive) | > 100 µM (inactive) | > 100 µM (inactive) | > 100 µM (inactive) | 52.2 µM (inactive) | > 100 µM (inactive) | 41.9 µM (inactive) |  |  | > 100 µM (inactive)
8 | c1ccc(NN/N=N/c2ccc(-c3nc4ccccc4[nH]3)cc2)cc1 | 60.7 µM (inactive) | > 100 µM (inactive) | 39.4 µM (inactive) | 8.43 µM (inactive) | 21.3 µM (inactive) | 25.6 µM (inactive) |  |  | 22.1 µM (inactive) | 23.4 µM (inactive) | > 100 µM (inactive) | 28.2 µM (inactive) | 23.8 µM (inactive) | 25.8 µM (inactive) | 31.8 µM (inactive) | 29 µM (inactive) | 22 µM (inactive) | 77.6 µM (inactive) | 14.2 µM (inactive) | > 100 µM (inactive)
